Reference: patent US20120021010A1, “ANTIPLATELET AGENT AND METHODS OF USING THE SAME” (University of Calcutta, priority 2010, published 2012)

Test system: platelets
Assay: ADP-induced platelet aggregation, chronolog optical aggregometry
Assay type: cell-based, human
Conditions: platelets of patient treated with clopidogrel; inset of FIG. 3C
Method: In this example, platelet aggregation in the presence of SPIONs and various agonists was examined. The study was carried out using chronolog optical aggregometry.
FIGS. 2A and 2B respectively represent aggregometric results in presence of the agonists arachidonic acid (0.5 mM) and ADP (10 μM). Arachidonic acid is the main target for the antiplatelet drug aspirin and ADP is the main target for the antiplatelet drug clopidogrel. […] Thus, SPIONs cause no change in ADP- and arachidonic acid-induced aggregation of platelets from normal healthy individuals. The 85% to 95% aggregation increase in FIG. 2B can be ignored as the fractional increase is insignificant.

## COC(=O)[C@H](c1ccccc1Cl)N1CCc2sccc2C1 [clopidogrel]
  ADP-induced platelet aggregation in a patient treated with clopidogrel: ADP cannot induce aggregation
